Test results from ChEMBL document CHEMBL1201862, “PubChem BioAssay data set” (2004).
Counter-ions that a name gives are not always drawn. Active and inactive are the calls of the source.

Assays:
[1] = biological target: T1, Cytochrome P450 3A4 (Homo sapiens, UniProt P08684); details: Potency
[2] = microbe, parasite or virus in culture; format: functional; details: Mycobacterium tuberculosis
[3] = biological target: T2, Ubiquitin-conjugating enzyme E2 N (Homo sapiens, UniProt P61088); format: functional;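 further: Dose-response confirmation in a TR-FRET assay detecting UBC13-driven polyubiquitin chain formation, inhibition measured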
T2 sequence (P61088 whole entry): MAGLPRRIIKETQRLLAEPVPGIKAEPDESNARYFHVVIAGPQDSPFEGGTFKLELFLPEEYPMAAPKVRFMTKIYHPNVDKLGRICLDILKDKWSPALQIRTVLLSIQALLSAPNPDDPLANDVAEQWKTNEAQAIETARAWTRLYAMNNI

[4] = biological target: T3, DNA repair protein RAD52 homolog (Homo sapiens, UniProt P43351); format: functional, biochemical
T3 sequence (P43351 whole entry): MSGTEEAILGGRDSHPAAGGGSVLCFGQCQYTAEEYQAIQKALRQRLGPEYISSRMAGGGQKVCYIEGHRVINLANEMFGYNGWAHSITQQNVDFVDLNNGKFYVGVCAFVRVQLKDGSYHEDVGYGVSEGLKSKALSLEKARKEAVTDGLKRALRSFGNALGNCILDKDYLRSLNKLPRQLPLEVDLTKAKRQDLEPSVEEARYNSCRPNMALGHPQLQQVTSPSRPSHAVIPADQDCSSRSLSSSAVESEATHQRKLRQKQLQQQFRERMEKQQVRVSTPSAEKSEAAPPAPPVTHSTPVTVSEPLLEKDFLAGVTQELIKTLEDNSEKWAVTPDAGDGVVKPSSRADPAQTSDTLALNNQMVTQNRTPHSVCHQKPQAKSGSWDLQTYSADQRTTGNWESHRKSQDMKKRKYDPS

[5] = biological target: T4, DNA repair and recombination protein RAD54-like (Homo sapiens, UniProt Q92698); test: inhibitors of human RAD54 branch migration, confirmation, biochemical, fluorescence, cherry-picked samples, dose series (AID 651657); format: functional
T4 sequence (Q92698 whole entry): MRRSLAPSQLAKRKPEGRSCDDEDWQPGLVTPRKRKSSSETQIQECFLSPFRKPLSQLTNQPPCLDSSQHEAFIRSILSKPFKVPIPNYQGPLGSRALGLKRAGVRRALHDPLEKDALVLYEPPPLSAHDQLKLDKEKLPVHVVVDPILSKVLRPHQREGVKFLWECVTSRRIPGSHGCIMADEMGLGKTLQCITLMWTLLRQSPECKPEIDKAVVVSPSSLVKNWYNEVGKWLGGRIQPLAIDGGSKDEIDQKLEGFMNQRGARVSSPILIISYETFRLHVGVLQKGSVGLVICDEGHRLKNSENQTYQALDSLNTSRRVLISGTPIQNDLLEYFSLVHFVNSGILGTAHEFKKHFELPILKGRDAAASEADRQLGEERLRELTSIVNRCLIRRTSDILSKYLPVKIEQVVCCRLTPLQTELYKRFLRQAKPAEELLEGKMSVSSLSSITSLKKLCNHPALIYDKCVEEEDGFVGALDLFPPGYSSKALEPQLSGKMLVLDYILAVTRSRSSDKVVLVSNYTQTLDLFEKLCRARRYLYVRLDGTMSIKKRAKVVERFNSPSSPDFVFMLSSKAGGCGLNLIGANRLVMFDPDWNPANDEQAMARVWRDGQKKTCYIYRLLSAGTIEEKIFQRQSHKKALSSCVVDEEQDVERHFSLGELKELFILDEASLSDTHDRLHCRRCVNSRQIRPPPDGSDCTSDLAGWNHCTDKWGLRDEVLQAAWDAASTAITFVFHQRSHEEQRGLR

[6] = biological target: Genome polyprotein (dengue virus type 2, UniProt P29990); test: Dengue-2 NS5 methyltransferase inhibitors, primary screen, biochemical, confirmation dose response (AID 588689); format: functional
[7] = biological target: Cytochrome P450 2C19 (Homo sapiens, UniProt P33261); test: Cytochrome panel assay with activity outcomes. Panel member name: p450-cyp2c19 Compounds with AC50 equal or less than 10 uM are considered active; format: functional
[8] = Luminescence Cell-Based Dose Confirmation HTS to Identify Activators of 5'UTR Stem-Loop Driven Alpha-Synuclein mRNA Translation in H4 Neuroglioblastoma Cells. [Related pubchem assays: 1829 (Project Summary), 1814 (Primary HTS)]; format: functional
[9] = Luminescence Cell-Based Dose Response HTS to Identify Activators of Luciferase Translation or Activity in H4 […] Cells. [Related pubchem assays: 1829 (Project Summary), 1814 (Primary HTS)]; format: functional
[10] = system: H4; test: Luminescence Cell-Based Dose Response HTS to Identify Activators of 5'UTR Stem-Loop Driven Prion Protein mRNA Translation in H4 Neuroglioblastoma Cells. [Related pubchem assays: 1829 (Project Summary), 1814 (Primary HTS)]; format: functional; details: Homo sapiens
[11] = system: Vero; test: cells; format: functional; details: Chlorocebus sabaeus
[12] = biological target: Glyceraldehyde-3-phosphate dehydrogenase (Homo sapiens, UniProt P04406)
[13] = biological target: FAD-linked sulfhydryl oxidase ALR (Homo sapiens, UniProt P55789); test: inhibitors of human ALR sulfhydryl oxidase, dose response, biochemical, H2O2 detection, luminescence, cherry-pick (AID 493248)
[14] = cells; format: functional
[15] = biological target: Cytochrome P450 2D6 (Homo sapiens, UniProt P10635);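 further: CYP2D6 member of a cytochrome P450 panel assay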
[16] = biological target: T1, Cytochrome P450 3A4
[17] = biological target: Cytochrome P450 2C9 (Homo sapiens, UniProt P11712)
[18] = system: BJ; test: cytotoxicity toward BJ-TERT fibroblasts, dose response, cell-based, RAS-independent, luminescence (AID 1933); format: functional; details: Homo sapiens
[19] = system: BJ; test: cells; format: functional, cell-based; details: Homo sapiens
[20] = biological target: Luciferin 4-monooxygenase (Photinus pyralis, UniProt P08659); test: firefly luciferase enzyme inhibitors, dose response, biochemical, luminescence (AID 1891)
[21] = Luminescence Cell-Based Dose Confirmation HTS to Identify Inhibitors of Platelet Dense Granule Release. [Related pubchem assays: 1663 (Primary HTS), 1678 (Summary of Project)]; format: functional
[22] = system: BJ; test: cytotoxicity toward BJ-TERT-LT-ST fibroblasts, dose response, cell-based, RAS-independent, luminescence (AID 1935); format: functional; details: Homo sapiens;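 further: BJ fibroblasts immortalized with TERT plus LT and ST oncogenes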
[23] = cytotoxicity toward DRD oncogenic fibroblasts, dose response, cell-based, non-viral oncogenic, luminescence (AID 1934); format: functional; details: Homo sapiens
[24] = inhibitors of intracellular T. cruzi replication, confirmation, NIH3T3 host cells, beta-gal luminescence (AID 2044); format: functional, cell-based;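 further: intracellular parasites grown in NIH/3T3 mouse fibroblasts as host cells; luminescent beta-galactosidase reporter signal from transgenic T. cruzi replicating inside host cells; inhibitors lower the luminescence signal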
[25] = growth suppression of PTEN-null colon cells, dose response, cell-based, HCT116 PTEN knockout (AID 1047); format: functional;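 further: HCT116 colon tumor cells with PTEN knocked out; cells exposed to compound for 60 hours before readout; potency for loss of cell viability measured by luminescence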
[26] = cytotoxicity toward NIH3T3 fibroblasts, dose response, counter-screen, cell-based, ATP luminescence, mouse fibroblasts (AID 2010); format: functional;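 further: cells exposed to compound for about 90 hours before reading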
[27] = growth suppression of beta-catenin-knockout colon cells, dose response, cell-based, HCT116, human colon tumor (AID 1045); format: functional;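 further: HCT116 colon tumor cells with beta catenin knocked out; cells exposed to compound for 60 hours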
[28] = cells; format: functional, cell-based
[29] = cells; format: functional, cell-based; remark: listed apart in the source

Chain of Glyceraldehyde-3-phosphate dehydrogenase (P04406 whole entry): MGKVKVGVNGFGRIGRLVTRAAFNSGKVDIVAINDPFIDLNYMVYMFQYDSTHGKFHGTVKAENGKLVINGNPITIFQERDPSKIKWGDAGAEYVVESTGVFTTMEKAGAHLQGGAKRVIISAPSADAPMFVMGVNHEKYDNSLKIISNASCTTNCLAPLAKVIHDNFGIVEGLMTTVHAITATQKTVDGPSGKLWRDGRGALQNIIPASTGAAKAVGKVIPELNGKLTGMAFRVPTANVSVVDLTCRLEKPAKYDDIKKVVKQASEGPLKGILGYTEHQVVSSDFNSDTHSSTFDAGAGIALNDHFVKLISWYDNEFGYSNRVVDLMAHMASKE
Chain of Genome polyprotein (P29990 2492-3391 limits assumed): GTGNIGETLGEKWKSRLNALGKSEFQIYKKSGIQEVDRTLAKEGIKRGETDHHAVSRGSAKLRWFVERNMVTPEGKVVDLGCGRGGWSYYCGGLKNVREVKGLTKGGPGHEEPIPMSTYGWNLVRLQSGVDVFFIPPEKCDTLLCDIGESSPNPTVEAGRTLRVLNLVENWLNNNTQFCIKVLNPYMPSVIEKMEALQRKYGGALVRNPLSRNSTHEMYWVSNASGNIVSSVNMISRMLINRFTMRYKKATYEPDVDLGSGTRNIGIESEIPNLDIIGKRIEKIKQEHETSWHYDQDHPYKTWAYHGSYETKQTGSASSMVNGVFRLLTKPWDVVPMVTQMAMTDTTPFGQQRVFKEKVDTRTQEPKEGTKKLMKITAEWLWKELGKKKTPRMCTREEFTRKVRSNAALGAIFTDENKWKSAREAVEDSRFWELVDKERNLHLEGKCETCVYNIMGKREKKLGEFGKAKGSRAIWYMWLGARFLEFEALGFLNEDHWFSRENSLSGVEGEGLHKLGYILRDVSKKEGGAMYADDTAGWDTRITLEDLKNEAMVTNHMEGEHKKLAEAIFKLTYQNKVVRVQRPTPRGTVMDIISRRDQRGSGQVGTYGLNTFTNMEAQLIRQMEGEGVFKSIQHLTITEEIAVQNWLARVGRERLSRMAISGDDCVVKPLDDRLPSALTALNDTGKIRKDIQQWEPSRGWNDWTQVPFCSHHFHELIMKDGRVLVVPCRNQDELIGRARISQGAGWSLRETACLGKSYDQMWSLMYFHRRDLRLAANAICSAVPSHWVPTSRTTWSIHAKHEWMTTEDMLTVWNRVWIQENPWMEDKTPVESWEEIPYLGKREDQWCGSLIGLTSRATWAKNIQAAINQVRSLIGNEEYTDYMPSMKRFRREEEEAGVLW
T1 sequence (P08684 whole entry): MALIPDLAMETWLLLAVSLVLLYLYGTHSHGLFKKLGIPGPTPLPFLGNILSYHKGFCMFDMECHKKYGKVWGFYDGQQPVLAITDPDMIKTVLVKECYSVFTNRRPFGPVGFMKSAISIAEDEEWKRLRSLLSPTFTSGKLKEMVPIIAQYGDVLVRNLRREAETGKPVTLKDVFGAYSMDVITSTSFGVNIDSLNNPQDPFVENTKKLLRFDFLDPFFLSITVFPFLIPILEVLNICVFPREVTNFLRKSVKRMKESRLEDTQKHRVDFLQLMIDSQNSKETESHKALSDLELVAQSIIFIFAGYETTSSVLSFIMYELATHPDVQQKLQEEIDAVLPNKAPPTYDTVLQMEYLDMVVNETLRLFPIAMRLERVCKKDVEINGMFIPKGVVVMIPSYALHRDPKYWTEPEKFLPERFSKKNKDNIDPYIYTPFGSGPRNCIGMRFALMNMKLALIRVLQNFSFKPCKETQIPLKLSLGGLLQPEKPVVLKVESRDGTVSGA
Chain of Cytochrome P450 2C19 (P33261 whole entry): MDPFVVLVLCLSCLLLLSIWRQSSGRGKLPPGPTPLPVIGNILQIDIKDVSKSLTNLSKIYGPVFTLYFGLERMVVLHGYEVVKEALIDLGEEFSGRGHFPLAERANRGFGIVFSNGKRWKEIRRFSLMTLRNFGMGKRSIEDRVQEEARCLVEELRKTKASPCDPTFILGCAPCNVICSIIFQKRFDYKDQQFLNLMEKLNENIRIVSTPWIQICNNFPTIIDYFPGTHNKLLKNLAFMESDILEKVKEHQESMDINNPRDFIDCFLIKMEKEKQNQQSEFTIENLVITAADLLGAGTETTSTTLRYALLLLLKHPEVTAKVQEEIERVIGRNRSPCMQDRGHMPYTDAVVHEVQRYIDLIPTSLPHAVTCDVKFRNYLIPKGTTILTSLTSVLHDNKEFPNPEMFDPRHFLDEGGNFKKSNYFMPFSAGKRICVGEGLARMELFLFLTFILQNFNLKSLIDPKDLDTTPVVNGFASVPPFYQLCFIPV
Chain of Cytochrome P450 2D6 (P10635 whole entry): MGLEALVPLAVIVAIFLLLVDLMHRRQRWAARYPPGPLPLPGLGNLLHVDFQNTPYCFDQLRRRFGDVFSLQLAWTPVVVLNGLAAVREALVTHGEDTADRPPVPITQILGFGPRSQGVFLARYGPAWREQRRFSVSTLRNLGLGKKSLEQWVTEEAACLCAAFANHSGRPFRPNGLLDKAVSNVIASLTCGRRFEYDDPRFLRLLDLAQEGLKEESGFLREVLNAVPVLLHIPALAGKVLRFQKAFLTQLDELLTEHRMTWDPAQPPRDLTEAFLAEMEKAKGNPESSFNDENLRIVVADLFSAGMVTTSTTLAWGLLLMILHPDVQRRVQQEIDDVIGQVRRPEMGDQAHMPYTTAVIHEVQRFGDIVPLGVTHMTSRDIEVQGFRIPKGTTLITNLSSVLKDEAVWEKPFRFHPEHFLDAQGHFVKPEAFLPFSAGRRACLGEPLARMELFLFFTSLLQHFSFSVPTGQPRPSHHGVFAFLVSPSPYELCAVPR
Chain of Cytochrome P450 2C9 (P11712 whole entry): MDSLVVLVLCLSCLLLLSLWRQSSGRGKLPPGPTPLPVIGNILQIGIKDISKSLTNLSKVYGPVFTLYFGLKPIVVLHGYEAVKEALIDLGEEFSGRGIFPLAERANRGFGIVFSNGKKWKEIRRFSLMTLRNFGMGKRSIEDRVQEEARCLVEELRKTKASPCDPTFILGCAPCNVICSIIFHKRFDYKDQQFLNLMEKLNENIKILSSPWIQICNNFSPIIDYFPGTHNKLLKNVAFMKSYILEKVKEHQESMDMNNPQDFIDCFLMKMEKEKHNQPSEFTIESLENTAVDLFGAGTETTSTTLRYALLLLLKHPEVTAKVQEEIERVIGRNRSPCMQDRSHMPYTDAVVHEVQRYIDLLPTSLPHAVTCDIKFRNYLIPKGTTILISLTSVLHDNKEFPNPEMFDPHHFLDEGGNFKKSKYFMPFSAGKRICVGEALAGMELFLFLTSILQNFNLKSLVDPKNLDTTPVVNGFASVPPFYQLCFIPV
Chain of FAD-linked sulfhydryl oxidase ALR (P55789 whole entry): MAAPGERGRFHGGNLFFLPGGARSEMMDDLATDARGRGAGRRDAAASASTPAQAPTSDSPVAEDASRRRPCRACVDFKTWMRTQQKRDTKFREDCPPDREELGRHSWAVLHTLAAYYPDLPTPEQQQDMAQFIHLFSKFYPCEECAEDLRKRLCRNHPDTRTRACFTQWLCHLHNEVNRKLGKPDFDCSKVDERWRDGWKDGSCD
Chain of Luciferin 4-monooxygenase (P08659 whole entry): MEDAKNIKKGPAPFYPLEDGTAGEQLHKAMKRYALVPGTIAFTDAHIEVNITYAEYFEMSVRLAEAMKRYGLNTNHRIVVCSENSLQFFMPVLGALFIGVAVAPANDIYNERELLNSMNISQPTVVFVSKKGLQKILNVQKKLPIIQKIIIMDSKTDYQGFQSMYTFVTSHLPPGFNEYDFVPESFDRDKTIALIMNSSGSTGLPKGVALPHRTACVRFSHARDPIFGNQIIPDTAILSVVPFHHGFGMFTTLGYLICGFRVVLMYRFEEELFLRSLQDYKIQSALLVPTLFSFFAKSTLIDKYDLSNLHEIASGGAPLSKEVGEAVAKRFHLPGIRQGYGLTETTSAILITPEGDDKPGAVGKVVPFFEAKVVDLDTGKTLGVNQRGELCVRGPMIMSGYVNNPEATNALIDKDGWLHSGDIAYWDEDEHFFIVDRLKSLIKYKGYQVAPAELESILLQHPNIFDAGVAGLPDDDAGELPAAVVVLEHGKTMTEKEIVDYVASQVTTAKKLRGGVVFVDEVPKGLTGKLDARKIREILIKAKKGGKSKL

In the case of CCCCC(CC)COC(=O)CCCCC(=O)OCC(CC)CCCC (stereo not given), the AC50 [1] is reported as 20 µM (inconclusive).

In the case of CCOC(=O)c1c(NC(=O)C(NCCN(C)C)c2ccccc2)sc2c1CCCC2 (stereo not given), the CC50 [2] is reported as 13.2 µM (active), the IC50 [3] is reported as > 20 µM (inactive) and the AC50 [4] is reported as 10 µM (active).

With CCOC(=O)c1cnc2c(Cl)cccc2c1NCCCN1CCOCC1 the AC50 [5] was 32.7 µM (active).

For CC1=NOC(=O)/C1=C/c1ccc2c(c1)OCO2, the IC50 [6] was 11.6 µM (active).

For CC(SCc1cn2cc(Cl)ccc2n1)C(=O)O (stereo not given), the AC50 [7] was 28.2 µM (inconclusive).

With Cc1cccc(N2CCN(C(=O)CNC(=O)c3ccccc3)CC2)c1C the EC50 [8] was 19.2 µM (active), the EC50 [9] was 11.3 µM (active) and the EC50 [10] was > 60 µM (not active).

With O=C(NNc1ccc([N+](=O)[O-])cn1)Nc1ccc(N=Nc2ccccc2)cc1 the CC50 [11] was 19.4 µM (active).

In the case of Cc1cccc2c1-c1sc(C(=O)Nc3ccccc3N3CCN(C)CC3)cc1CO2, the CC50 [2] is reported as 18.8 µM (active).

In the case of Cc1occc1C(=O)N/N=C/c1cccc2ccccc12, the EC50 [8] is reported as 0.129 µM (active), the EC50 [9] is reported as 0.19 µM (active) and the EC50 [10] is reported as 52.9 µM (active).

In the case of COc1cc(/C=C2\SC(=S)N(C(C(=O)O)c3ccccc3)C2=O)cc(OC)c1OC (stereo not given), the IC50 [6] is reported as > 100 µM (active).

In the case of Cc1cccc(N2C(=O)C(Cl)=C(N3CCN(C/C=C/c4ccccc4)CC3)C2=O)c1, the IC50 [12] is reported as > 50 µM (inconclusive).

For CC(C)OC(=O)c1sc2nc3c(cc2c1N)C(=O)CCC3, the EC50 [8] was 41.9 µM (active), the EC50 [9] was 73.1 µM (active) and the EC50 [10] was 41.6 µM (active).

In the case of COc1cc(C)c(C(=O)Oc2cc(C)c(C(=O)O)c(O)c2C)c(OC)c1C [DIFFRACTAIC ACID], the AC50 [13] is reported as 0.784 µM (active) and the AC50 [1] is reported as 25.1 µM (inconclusive).

In the case of COn1c(-c2ccc(Cl)cc2)nc2ncccc21, the EC50 [8] is reported as 0.106 µM (active), the EC50 [9] is reported as 35.5 µM (active) and the EC50 [10] is reported as 51.9 µM (active).

For O=C(NCCc1c[nH]c2ccccc12)c1cc2ccccc2oc1=O, the EC50 [8] was 0.481 µM (active), the EC50 [9] was 119 µM (active) and the EC50 [10] was 11 µM (active). The IC50 [14] was 0.34 µM (active).

For O=C1OCC(c2ccccc2)=C1c1ccc(S(=O)(=O)N2CCOCC2)s1, the AC50 [7] was 22.4 µM (inconclusive), the AC50 [15] was 31.6 µM (inconclusive) and the AC50 [16] was 28.2 µM (inconclusive).

For CC1CCC(NC(=O)Cn2cc3c(n2)CCCC3)CC1 (stereo not given), the EC50 [8] was 0.278 µM (active), the EC50 [9] was 3.02 µM (active) and the EC50 [10] was 4.09 µM (active).

For Cc1cc2cc(C=O)c(Cl)nc2cc1C, the AC50 [7] was 0.0708 µM (inconclusive), the AC50 [15] was 7.08 µM (inconclusive) and the AC50 [16] was 10 µM (inconclusive).

With O=C(c1ccccc1)c1ccc(Oc2ccc(C(=O)O)c(C(=O)O)c2)cc1 the IC50 [12] was > 100 µM (not active).

For CNC(C)C#Cc1ccc2oc3cccc(OC)c3c(=O)c2c1 (stereo not given), the AC50 [5] was 24.3 µM (active).

In the case of COC(c1ccccc1Br)C(C)/C=C/CCO (stereo not given), the AC50 [1] is reported as 3.16 µM (inconclusive).

With C#CCOc1c(/C=C\c2nc(O)c([N+](=O)[O-])c(O)n2)cc(Br)cc1OC the IC50 [6] was 74.5 µM (active).

In the case of COc1cc(/C=N/NC(=O)c2cccc([N+](=O)[O-])c2)ccc1OCc1ccc(C)cc1, the AC50 [7] is reported as 2.51 µM (inconclusive) and the AC50 [17] is reported as 1.58 µM (inconclusive).

In the case of COc1ccc(C(=O)/C=C/c2ccccc2F)c(OC(=O)c2ccc([N+](=O)[O-])cc2)c1, the CC50 [11] is reported as 20.9 µM (active).

With COC(C)(C)CCCC(C)C/C=C/C(C)=C/C(=O)OC(C)C (stereo not given) the AC50 [1] was 31.6 µM (inconclusive).

For COc1ccc(Oc2ncc3nc(C)c(=O)n(Cc4cccs4)c3n2)cc1, the AC50 [7] was 39.8 µM (inconclusive), the AC50 [15] was 25.1 µM (inconclusive) and the AC50 [17] was 39.8 µM (inconclusive).

For CN1CCCCC1c1ccc(-c2cccnc2)nc1 (stereo not given) [ANABASAMINE HYDROCHLORIDE], the AC50 [1] was 12.6 µM (inconclusive).

For COc1cccc(N2CCN(C3=C(Cl)C(=O)N(c4cccc(C(F)(F)F)c4)C3=O)CC2)c1, the IC50 [12] was > 50 µM (inconclusive).

In the case of CS(C)(=O)=O [DIMETHYL SULFONE], the AC50 [1] is reported as 20 µM (inconclusive).

In the case of Cc1cc(NCCCN(C)C)n2c(nc3ccccc32)c1C#N, the AC50 [5] is reported as 18.7 µM (active).

With CCCOc1ccc(CSC(CC(=O)O)C(=O)O)cc1 (stereo not given) the AC50 [7] was 0.224 µM (inconclusive).

For CN(C)c1ccc(-c2cc(NCc3cccnc3)ncn2)cc1, the AC50 [7] was 39.8 µM (inconclusive).

In the case of O=c1cc(-c2ccc(O)cc2)oc2cc(O)ccc12, the AC50 [1] is reported as 7.94 µM (inconclusive).

For CSc1nc2sc3c(c2c(=O)n1C)CCC(C)C3 (stereo not given), the EC50 [8] was 5.51 µM (active), the EC50 [9] was 19.9 µM (active) and the EC50 [10] was 15.3 µM (active).

With O=C(CCl)NCCCCCCCCCNC(=O)CCl the EC50 [18] was 18.8 µM (active), the EC50 [19] was > 150 µM (not active) and the EC50 [20] was > 112 µM (not active). For the same compound, the EC50 [21] was > 112 µM (not active), the CC50 [2] was 19 µM (active) and the EC50 [22] was > 150 µM (not active). The EC50 [23] was > 150 µM (not active).

For Cn1nc(-c2ccc(N3CCCCC3)c(NC(=O)c3ccco3)c2)c2ccccc2c1=O, the EC50 [24] was 1.23 µM (active), the CC50 [2] was 26.3 µM (active) and the EC50 [25] was 7.35 µM (active). The EC50 [26] was > 60 µM (not active) and the EC50 [27] was 9.07 µM (active).

For NS(=O)(=O)c1ccc(CNC(=O)c2csc3c2CCCC3)cc1, the EC50 [28] was > 350 µM (not active) and the EC50 [29] was > 350 µM (not active).

In the case of Nc1ccc(Oc2ccc(N)cc2)cc1, the AC50 [1] is reported as 31.6 µM (inconclusive).

With OCCN1CCN(c2nc(-c3ccccc3O)nc3ccccc23)CC1 the AC50 [5] was 7.01 µM (active).
